Starred links: 1 amine or outer side, 2 acyl side, 3 side chain; linkers in the order of their positions; H or OH if unused. Positions of bridges follow the written chain, without caps; N, C: chain ends. Non-standard residues stand in square brackets, D forms with d. Residues, ends and D or L forms follow the SMILES beside them. *: point of attachment. X4 = O=C([C@@H]1C[C@@H](N2CCC(F)(F)CC2)CN1[*:1])[*:2]; Phe(4-CF3) = N[C@@H](Cc1ccc(C(F)(F)F)cc1)C(=O)O; NMeAla(4-thiazolyl) = CN[C@@H](Cc1cscn1)C(=O)O; NMePhe(4-Cl) = CN[C@@H](Cc1ccc(Cl)cc1)C(=O)O; X17 = O=C([C@H](CCCC(O)C(F)(F)F)N[*:1])[*:2]; NMeW = CN[C@@H](Cc1c[nH]c2ccccc12)C(=O)O; NMehPhe = CN[C@@H](CCc1ccccc1)C(=O)O; Ethyl(2-morpholino) = C1CN(CC*)CCO1; NMeF = CN[C@@H](Cc1ccccc1)C(=O)O; NMeGABA = CN(CCCC(=O)[*:2])[*:1]; NMeI = CC[C@H](C)[C@H](NC)C(=O)O; NMeD = CN[C@@H](CC(=O)O)C(=O)O; NMeL = CN[C@@H](CC(C)C)C(=O)O; NMeV = CN[C@H](C(=O)O)C(C)C; NMeAbu = CC[C@H](NC)C(=O)O; Pip = O=C(O)[C@@H]1CCCCN1; NMeA = CN[C@@H](C)C(=O)O; Piperidide = C1CCN(*)CC1; Me2NCH2CH2 = CN(C)CC*; NPrGly = CCCNCC(=O)O; Sar = CNCC(=O)O; tBu = CC(C)(C)*; Propyl = CCC*
Experiment: Caco-2 membrane permeability, improved method as used in the following Examples (96-well, 20 to 24 h preincubation)
Type: in vitro ADME
Conditions: Caco-2, Caco-2
In short: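 Papp (cm/sec) was derived from LC/MS of basal samples collected 180 min after apical dosing in FaSSIF/HBSS pH 6.0 with 1% DMSO, against a basal HBSS pH 7.4 receiver containing 4% BSA. Three-week Caco-2 cultures were first preincubated with compound in DMEM+FaSSIF at 37 °C for 20–24 h.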
CC[C@H](C)[C@@H]1NC(=O)[C@H](CC(C)C)N(C)C(=O)[C@H](CCCC(O)C(F)(F)F)NC(=O)[C@H](Cc2ccccc2)N(C)C(=O)CN(C)C(=O)C[C@@H](C(=O)N2CCCCC2)NC(=O)[C@H](CC(C)C)N(C)C(=O)[C@H](COC(C)(C)C)NC(=O)[C@H](CC(C)C)N(C)C(=O)[C@H](Cc2ccccc2)N(C)C(=O)CN(C)C1=O (stereo partly drawn) [pd502] ([Sar][NMeF][X17][NMeL]I[Sar][NMeF][NMeL]S(tBu)[NMeL]D-Piperidide; lactam N-11) gave a Papp A→B of 1 ×10⁻⁶ cm/s.

Same assay, conditions: human, Caco-2, Caco-2
CCCOC[C@@H]1NC(=O)[C@H](Cc2ccccc2)N(C)C(=O)[C@H](Cc2ccccc2)N(C)C(=O)[C@H](C(C)C)NC(=O)[C@H](CC(C)C)N(C)C(=O)CCCN(C)C(=O)C[C@@H](C(=O)N2CCCCC2)NC(=O)[C@H](CC(C)C)N(C)C(=O)[C@H](CC(C)C)N(C)C(=O)[C@H]([C@@H](C)O)NC(=O)[C@H](CC(C)C)N(C)C1=O [pd328] ([NMeGABA][NMeL]V[NMeF][NMeF]S(Propyl)[NMeL]T[NMeL][NMeL]D-Piperidide; lactam N-11) gave a Papp A→B at 180 min of 2.3 ×10⁻⁶ cm/s. With CC[C@H](C)[C@@H]1NC(=O)[C@H](CC(C)C)N(C)C(=O)CCCN(C)C(=O)C[C@@H](C(=O)N2CCCCC2)NC(=O)[C@H](CC(C)C)N(C)C(=O)[C@H](CC(C)C)N(C)C(=O)[C@H](COCCN2CCOCC2)NC(=O)[C@H](CC(C)C)N(C)C(=O)[C@H](COC(C)(C)C)NC(=O)[C@H](CC)N(C)C(=O)[C@H](Cc2ccccc2)N(C)C1=O [pd485] ([NMeGABA][NMeL]I[NMeF][NMeAbu]S(tBu)[NMeL]S(Ethyl(2-morpholino))[NMeL][NMeL]D-Piperidide; lactam N-11) the Papp A→B at 180 min was 1.2 ×10⁻⁶ cm/s. Compound CC[C@H](C)[C@H]1C(=O)N[C@@H]([C@@H](C)O)C(=O)N(C)CC(=O)N(C)[C@@H](C)C(=O)N[C@H](C(=O)N2CCCCC2)CC(=O)N(C)[C@@H](C)C(=O)N[C@@H](C(C)C)C(=O)N(C)[C@@H](CC(C)C)C(=O)N(C)[C@@H](Cc2ccccc2)C(=O)NC(COc2cccc(Cl)c2)C(=O)N(C)[C@@H](Cc2ccccc2)C(=O)N1C (stereo partly drawn) [pd345] has a Papp A→B at 180 min of 1.8 ×10⁻⁶ cm/s. In the case of CC(C)C[C@H]1C(=O)N(C)[C@@H](CC(C)C)C(=O)N(C)[C@@H](CC(C)C)C(=O)N(C)[C@@H](Cc2ccccc2)C(=O)N[C@@H]([C@@H](C)O)C(=O)N(C)[C@@H](Cc2ccccc2)C(=O)N(C)[C@@H](CC(C)C)C(=O)N2C[C@H](N3CCC(F)(F)CC3)C[C@H]2C(=O)N[C@H](C(=O)N2CCCCC2)CC(=O)N[C@@H](C(C)C)C(=O)NCC(=O)N1C [pd460] (VG[NMeL][NMeL][NMeL][NMeF]T[NMeF][NMeL][X4]D-Piperidide; lactam N-11), the Papp A→B at 180 min is reported as 1.2 ×10⁻⁶ cm/s. With CC(C)C[C@@H]1NC(=O)[C@H](CC(C)C)N(C)C(=O)CN(C)C(=O)[C@H]([C@@H](C)O)NC(=O)[C@H](CC(C)C)N(C)C(=O)[C@H](C(C)C)NC(=O)[C@H](Cc2ccccc2)N(C)C(=O)[C@@H](C)NC(=O)C[C@@H](C(=O)N2CCCCC2)NC(=O)[C@H](CC(C)C)N(C)C(=O)[C@H](CCc2ccccc2)N(C)C1=O [pd321] ([dA][NMeF]V[NMeL]T[Sar][NMeL]L[NMehPhe][NMeL]D-Piperidide; lactam N-11) the Papp A→B at 180 min was 1.3 ×10⁻⁶ cm/s. For CCCN1CC(=O)N(C)[C@@H](CC(C)C)C(=O)N[C@@H](COC(C)(C)C)C(=O)N(C)[C@@H](Cc2ccccc2)C(=O)N(C)[C@@H](C(C)C)C(=O)N[C@H](C(=O)N2CCCCC2)CC(=O)N[C@H](C(C)C)C(=O)N(C)[C@@H](Cc2ccccc2)C(=O)N[C@@H](COCCN(C)C)C(=O)N(C)[C@@H](CC(C)C)C(=O)N[C@@H]([C@@H](C)O)C1=O [pd50] ([dV][NMeF]S(Me2NCH2CH2)[NMeL]T[NPrGly][NMeL]S(tBu)[NMeF][NMeV]D-Piperidide; lactam N-11), the Papp A→B at 180 min was 0.15 ×10⁻⁶ cm/s.

Same assay, conditions: human, Caco-2, Caco-2 (cm/sec)
Work on CC(C)C[C@@H]1NC(=O)[C@H](Cc2ccccc2)N(C)C(=O)[C@H](C)N(C)C(=O)C[C@@H](C(=O)N2CCCCC2)NC(=O)[C@H](CC(C)C)N(C)C(=O)[C@H](Cc2ccccc2)N(C)C(=O)[C@H](Cc2ccccc2)NC(=O)[C@H](Cc2cscn2)N(C)C(=O)[C@H](C)N(C)C(=O)[C@H](CC(C)C)N(C)C(=O)[C@H]([C@@H](C)O)NC1=O [pd238] ([NMeA][NMeF]LT[NMeL][NMeA][NMeAla(4-thiazolyl)]F[NMeF][NMeL]D-Piperidide; lactam N-11) yielded a Papp A→B at 180 min of 0.088 ×10⁻⁶ cm/s. With CC[C@H](C)[C@H]1C(=O)N[C@@H](Cc2ccc(O)cc2)C(=O)N(C)CC(=O)N(C)[C@@H](CC(C)C)C(=O)N[C@H](C(=O)N2CCCCC2)CC(=O)N(C)[C@@H](C)C(=O)N[C@@H](CC(C)C)C(=O)N(C)[C@@H](C)C(=O)N(C)[C@@H](Cc2ccccc2)C(=O)N[C@@H](C(C)C)C(=O)N(C)[C@@H](C)C(=O)N1C [pd116] ([NMeA]L[NMeA][NMeF]V[NMeA][NMeI]Y[Sar][NMeL]D-Piperidide; lactam N-11) the Papp A→B at 180 min was 0.14 ×10⁻⁶ cm/s. In the case of CC(C)C[C@@H]1NC(=O)[C@H](Cc2c[nH]c3ccccc23)N(C)C(=O)[C@@H](C(C)C)NC(=O)C[C@@H](C(=O)N2CCCCC2)NC(=O)[C@H](CC(C)C)N(C)C(=O)[C@H](CC(C)C)N(C)C(=O)[C@H](COC(C)(C)C)NC(=O)[C@H](CC(C)C)N(C)C(=O)CN(C)C(=O)[C@H]([C@@H](C)O)NC(=O)[C@H](CC(C)C)N(C)C1=O [pd106] ([dV][NMeW]L[NMeL]T[Sar][NMeL]S(tBu)[NMeL][NMeL]D-Piperidide; lactam N-11), the Papp A→B at 180 min is reported as 0.36 ×10⁻⁶ cm/s. CC[C@H](C)[C@@H]1NC(=O)[C@H](CC(C)C)N(C)C(=O)CCCN(C)C(=O)C[C@@H](C(=O)N2CCCCC2)NC(=O)[C@H](CC(C)C)N(C)C(=O)[C@H](C)N(C)C(=O)[C@H](Cc2c[nH]c3ccccc23)NC(=O)[C@H](CC(C)C)N(C)C(=O)[C@H](COC(C)(C)C)NC(=O)[C@H](CC(C)C)N(C)C(=O)[C@H](CC(C)C)N(C)C1=O [pd110] ([NMeGABA][NMeL]I[NMeL][NMeL]S(tBu)[NMeL]W[NMeA][NMeL]D-Piperidide; lactam N-11) showed a Papp A→B at 180 min of 0.29 ×10⁻⁶ cm/s. Work on CC(C)C[C@H]1C(=O)N(C)[C@@H](Cc2ccccc2)C(=O)N(C)[C@@H](Cc2ccccc2)C(=O)N[C@@H]([C@@H](C)O)C(=O)N(C)[C@@H](C)C(=O)N(C)[C@@H](Cc2ccccc2)C(=O)N[C@H](C(=O)N2CCCCC2)CC(=O)N(C)[C@@H](C)C(=O)N(C)[C@@H](Cc2ccccc2)C(=O)N(C)[C@@H](CC(C)C)C(=O)N[C@@H](C(C)C)C(=O)N1C [pd233] ([NMeA][NMeF][NMeL]V[NMeL][NMeF][NMeF]T[NMeA][NMeF]D-Piperidide; lactam N-11) yielded a Papp A→B at 180 min of 0.17 ×10⁻⁶ cm/s. With CC(C)C[C@H]1C(=O)N[C@@H](COC(C)(C)C)C(=O)N(C)[C@@H](Cc2ccccc2)C(=O)N(C)[C@@H](C)C(=O)N[C@H](C(=O)N2CCCCC2)CC(=O)N[C@H](C(C)C)C(=O)N(C)[C@@H](C(C)C)C(=O)N[C@@H](Cc2ccc(C(F)(F)F)cc2)C(=O)N(C)[C@@H](CC(C)C)C(=O)N[C@@H]([C@@H](C)O)C(=O)N(C)CC(=O)N1C [pd134] ([dV][NMeV][Phe(4-CF3)][NMeL]T[Sar][NMeL]S(tBu)[NMeF][NMeA]D-Piperidide; lactam N-11) the Papp A→B at 180 min was 2.6 ×10⁻⁶ cm/s. Compound CC(C)C[C@@H]1NC(=O)[C@H](Cc2ccccc2)N(C)C(=O)[C@H](C)N(C)C(=O)C[C@@H](C(=O)N2CCCCC2)N(C)C(=O)[C@H](Cc2ccccc2)N(C)C(=O)[C@H](Cc2ccccc2)N(C)C(=O)[C@H](COC(C)(C)C)NC(=O)[C@H](C(C)C)N(C)C(=O)CN(C)C(=O)[C@H]([C@@H](C)O)NC(=O)[C@H](CC(C)C)N(C)C1=O [pd202] ([NMeA][NMeF]L[NMeL]T[Sar][NMeV]S(tBu)[NMeF][NMeF][NMeD]-Piperidide; lactam N-11) has a Papp A→B at 180 min of 2.1 ×10⁻⁶ cm/s. CC(C)C[C@H]1C(=O)N[C@H](C(=O)N2CCCCC2)CC(=O)N[C@H](C)C(=O)N(C)[C@@H](CC(C)C)C(=O)N2CCCC[C@H]2C(=O)N(C)[C@@H](CC(C)C)C(=O)N2CCCC[C@H]2C(=O)N(C)[C@@H](C)C(=O)N[C@@H]([C@@H](C)O)C(=O)N(C)[C@@H](Cc2ccccc2)C(=O)N[C@@H](Cc2ccc(C(F)(F)F)cc2)C(=O)N1C [pd141] ([dA][NMeL][Pip][NMeL][Pip][NMeA]T[NMeF][Phe(4-CF3)][NMeL]D-Piperidide; lactam N-11) gave a Papp A→B at 180 min of 2.1 ×10⁻⁶ cm/s. With CC[C@H](C)[C@@H]1NC(=O)[C@H](CC(C)C)N(C)C(=O)CN(C)C(=O)[C@H]([C@@H](C)O)NC(=O)[C@H](Cc2ccccc2)N(C)C(=O)[C@H](CC(C)C)NC(=O)[C@H](Cc2ccccc2)N(C)C(=O)[C@@H](CC(C)C)NC(=O)C[C@@H](C(=O)N2CCCCC2)NC(=O)[C@H](CC(C)C)N(C)C(=O)[C@H](Cc2ccccc2)N(C)C1=O [pd225] ([dL][NMeF]L[NMeF]T[Sar][NMeL]I[NMeF][NMeL]D-Piperidide; lactam N-11) the Papp A→B at 180 min was 1 ×10⁻⁶ cm/s. Work on CC(C)C[C@@H]1NC(=O)[C@H](C)N(C)C(=O)C[C@@H](C(=O)N2CCCCC2)NC(=O)[C@H](CC(C)C)N(C)C(=O)CN(C)C(=O)[C@H]([C@@H](C)O)NC(=O)[C@H](CC(C)C)N(C)C(=O)[C@H](Cc2ccc(Cl)cc2)N(C)C(=O)[C@H](C)NC(=O)[C@H](Cc2ccccc2)N(C)C(=O)[C@H](CC(C)C)N(C)C1=O [pd173] ([NMeA]L[NMeL][NMeF]A[NMePhe(4-Cl)][NMeL]T[Sar][NMeL]D-Piperidide; lactam N-11) yielded a Papp A→B at 180 min of 1.6 ×10⁻⁶ cm/s.

Same assay, conditions: human, Caco-2, improved method, preincubation 20 to 24 hours; Papp, sample at 180 minutes; read-out: Caco-2
Work on CCCN1CC(=O)N[C@@H]([C@@H](C)O)C(=O)N[C@H](C(=O)N2CCCCC2)CC(=O)N(C)[C@@H](CC(C)C)C(=O)N[C@@H](Cc2ccc(C(F)(F)F)cc2)C(=O)N(C)[C@@H](CC(C)C)C(=O)N(C)[C@@H](CC(C)C)C(=O)N[C@@H](COC(C)(C)C)C1=O [pd147] ([NMeL][Phe(4-CF3)][NMeL][NMeL]S(tBu)[NPrGly]TD-Piperidide; lactam N-8) yielded a Papp A→B at 180 min of 1.9 ×10⁻⁶ cm/s.

From patent US20200131669A1, “CYCLIC PEPTIDE COMPOUND HAVING HIGH MEMBRANE PERMEABILITY, AND LIBRARY CONTAINING SAME” (Chugai Seiyaku Kabushiki Kaisha, priority 2017, published 2020)
